Laboratory results reported in PMC9516243, “Design of stapled peptide-based PROTACs for MDM2/MDMX atypical degradation and tumor suppression” (Theranostics, 2022).
Values joined by “and” are separate entries in the source; they are usually repeats but may differ in a detail not shown here. Equal entries are not always repeated. Where two headings read alike, the source gives them in different places. Positions of bridges follow the written chain, without caps; N, C: chain ends. Non-standard residues stand in square brackets, D forms with d. Residues, ends and D or L forms follow the SMILES beside them. Hyp = O=C(O)[C@@H]1C[C@@H](O)CN1; R8 = C=CCCCCCC[C@@](C)(N)C(=O)O; hLeu = CC(C)CC[C@H](N)C(=O)O; S5 = C=CCCC[C@](C)(N)C(=O)O; PEG3 = NCCOCCOCCOCCC(=O)O; PEG2 = NCCOCCOCCC(=O)O; AEA = NCCOCC(=O)O

Experiments:
circular dichroism = conditions: phosphate buffer (PB); pH 7.2; 20 °C; 10-50 uM
[1] = α-Helicity by CD spectroscopy; type: physicochemical; conditions: PB pH 7.2, 10-50 µM peptide, 20°C, calculated from [θ]222
Description: Peptides were dissolved in PB (pH = 7.2) to concentrations ranging from 10 to 50 µM. CD spectra were obtained on a Jasco J-715 spectropolarimeter at 20°C. The spectra were collected using a 0.1 cm path length quartz cuvette with the following measurement parameters: wavelength, 185-255 nm; step resolution, 0.1 nm; speed, 20 nm/min; accumulations, 6; bandwidth, 1 nm. The helical content of each peptide was calculated as reported previously.

HCT116 p53^+/+ cells = assay: Cell viability assay (CCK-8); type: cell-based, human
Description: (§1) The human colon carcinoma cell line HCT116 p53^+/+ was obtained from the Cell Bank of the Chinese Academy of Sciences (Shanghai, China). HCT116 p53^-/- cells were generously provided by Prof. Vogelstein of Johns Hopkins University. Both cell lines were cultured in McCoy's 5A medium (Gibco, USA) containing 10% FBS, 100 units/ml penicillin, and 100 μg/ml streptomycin at 37 °C in a humidified incubator containing 5% CO2. Cell viability was measured using a Cell Counting Kit-8 (CCK-8) (Dojindo, Kumamoto, Japan) according to the manufacturer's instructions. In brief, the cells (5 × 10^3 cells/well in […] medium) were cultured for 24 h in 96-well microplates in a humidified 5% CO2 incubator at 37 °C and then treated with varying concentrations of compounds or 0.1% DMSO vehicle control.

HCT116 p53^-/- cells = assay: Cell viability assay (CCK-8); type: cell-based, human
Description: as §1

^24-108MDMX = biological target: T1, ^24-108MDMX (Homo sapiens, UniProt O15151); assay: FP-based competitive binding assay; conditions: MDMX 40 nM, fluorescently tagged p53 peptide 20 nM, PBS pH 7.4, 30 min room temperature; mean of three independent measurements
T1 construct: ^24-108MDMX, and a fluorescently tagged p53-derived peptide
T1 sequence (O15151 24-108): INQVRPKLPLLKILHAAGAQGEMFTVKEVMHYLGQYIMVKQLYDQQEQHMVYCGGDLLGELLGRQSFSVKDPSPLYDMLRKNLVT
Description: An FP-based competitive or binding assay was established using ^25-109MDM2, ^24-108MDMX, and a fluorescently tagged p53-derived peptide as previously described. [34]-[36] For dose-dependent competitive binding experiments, MDM2 or MDMX protein (40 nM) was first incubated with TAMRA-p53 peptide (20 nM) in PBS (pH 7.4) on a Costar 96-well plate, to which a serially diluted solution of test peptide was added to a final volume of 125 μL. After 30 min of incubation at room temperature, the FP values were measured at λex = 530 nm and λem = 580 nm on a Tecan Infinite M1000 plate reader. For binding experiments, FITC-labeled SPMI-HIF2-1 (20 nM) was incubated with different concentrations of MDM2, MDMX, and VHL proteins. Curve fitting was performed using GraphPad Prism software, and Ki values were calculated as described previously. Three replicates and three independent experiments were performed.

Pharmacokinetic study = type: in vivo; conditions: mouse, iv, male ICR mice, 1.8 mg/kg single i.v. tail vein, plasma, UPLC-ESI-QqQ-MS, n = 5
Description: The peptides (1.8 mg/kg) were individually dosed in mice intravenously via tail vein injection and the blood samples were collected from the orbital venous plexus at 0, 0.5, 1, 2, 4, 6, 10, 24, and 48 h. All blood samples were centrifuged at 3000 rpm for 10 min, and the obtained plasma samples were immediately frozen at -80 °C until use. The standard curve was established as follows: Stock solutions of PMI-HIF1-1 and SPMI-HIF2-1 dissolved in acetonitrile were spiked into control plasma at final concentrations of 4000, 2000, 1000, 500, 250, 125, 62.5, 31.25, 15.625, 7.8125, 3.90625, 1.953125, and 0.9765625 ng/ml. […] Plasma samples (30 μL) were treated with 90 μL acetonitrile for protein precipitation. Then all samples were vortexed for 2 min and centrifuged for 15 min at 13000 rpm and 4°C. The supernatants were analyzed by ultraperformance liquid chromatography-electrospray ionization-tandem triple quadrupole mass spectrometry (UPLC-ESI-QqQ-MS, Shimadzu 8040). The system was equipped with an XBridge BEH C18 column (2.5 μm, 2.1×100 mm; Waters, Milford, MA, USA). The column temperature was set at 35°C. The injection volume was 4 μl. […] The plasma concentration at each time point was calculated from the extracted peak area of the same mass peaks of each peptide using the corresponding standard curve.

Row | Compound | helicity (circular dichroism) | α-helicity (%) [1] | IC50 (HCT116 p53^+/+ cells; 72 h) | IC50 (HCT116 p53^-/- cells; 72 h) | IC50 (HCT116 p53^+/+ cells; CCK-8, 72 h incubation, absorbance 450 nm, read-out: IC50 (μM) HCT116 p53^+/+) | IC50 (HCT116 p53^-/- cells; CCK-8, 72 h incubation, absorbance 450 nm, read-out: IC50 (μM) HCT116 p53^-/-) | Ki (^24-108MDMX) | Cmax (Pharmacokinetic study; mean) | AUC(0-inf) (Pharmacokinetic study) | MRT (Pharmacokinetic study) | half-life (Pharmacokinetic study; read-out: half-life (t1/2) (converted))
1 | CC(=O)N[C@H](C(=O)N[C@@H](CO)C(=O)N[C@@H](Cc1ccccc1)C(=O)N[C@@H](C)C(=O)N[C@@H](CCC(=O)O)C(=O)N[C@@H](Cc1ccc(O)cc1)C(=O)N[C@@H](Cc1c[nH]c2ccccc12)C(=O)N[C@@H](C)C(=O)N[C@@H](CC(C)C)C(=O)N[C@@H](CC(C)C)C(=O)N[C@@H](CO)C(=O)NCCOCCOCCC(=O)N[C@@H](CC(C)C)C(=O)N[C@@H](C)C(=O)N1C[C@H](O)C[C@H]1C(=O)N[C@@H](Cc1ccc(O)cc1)C(=O)N[C@@H](CCC(C)C)C(=O)N1CCC[C@H]1C(N)=O)[C@@H](C)O [PMI-HIF1-2] | 17% | 17% | – | – | – | – | – | – | – | – | –
2 | CC(=O)N[C@H](C(=O)N[C@@H](CO)C(=O)N[C@@H](Cc1ccccc1)C(=O)N[C@@H](C)C(=O)N[C@@H](CCC(=O)O)C(=O)N[C@@H](Cc1ccc(O)cc1)C(=O)N[C@@H](Cc1c[nH]c2ccccc12)C(=O)N[C@@H](C)C(=O)N[C@@H](CC(C)C)C(=O)N[C@@H](CC(C)C)C(=O)N[C@@H](CO)C(=O)NCCOCCOCCOCCC(=O)N[C@@H](CC(C)C)C(=O)N[C@@H](C)C(=O)N1C[C@H](O)C[C@H]1C(=O)N[C@@H](Cc1ccc(O)cc1)C(=O)N[C@@H](CCC(C)C)C(=O)N1CCC[C@H]1C(N)=O)[C@@H](C)O [PMI-HIF1-3] | 17% | 17% | – | – | – | – | – | – | – | – | –
3 | CC(=O)N[C@H](C(=O)N[C@@H](CO)C(=O)N[C@@H](Cc1ccccc1)C(=O)N[C@@]1(C)CCCC=CCCC[C@@](C)(C(=O)N[C@@H](CC(C)C)C(=O)N[C@@H](CC(C)C)C(=O)N[C@@H](CO)C(N)=O)NC(=O)[C@H](Cc2c[nH]c3ccccc23)NC(=O)[C@H](Cc2ccc(O)cc2)NC(=O)[C@H](CCC(=O)O)NC1=O)[C@@H](C)O [SPMI1] (Ac-TSF[S5]EYW[S5]LLS-NH2; staple 4-8) | 4% | 4% | > 100 µM | > 100 µM | – | – | – | – | – | – | –
4 | CC(=O)N[C@H](C(=O)N[C@@H](CO)C(=O)N[C@@H](Cc1ccccc1)C(=O)N[C@]1(C)CCCCCCC=CCCC[C@@](C)(C(N)=O)NC(=O)[C@H](CC(C)C)NC(=O)[C@H](CC(C)C)NC(=O)[C@H](C)NC(=O)[C@H](Cc2c[nH]c3ccccc23)NC(=O)[C@H](Cc2ccc(O)cc2)NC(=O)[C@H](CCC(=O)O)NC1=O)[C@@H](C)O [SPMI2] | – | 5% | – | – | 28.4 µM | > 100 µM | 0.62 µM and 0.29 µM | 30000 ng/mL | 78600 ng·h/mL | 10.9 h | 7.9 h
5 | CC(=O)N[C@H](C(=O)N[C@@H](CO)C(=O)N[C@@H](Cc1ccccc1)C(=O)N[C@@]1(C)CCCC=CCCC[C@@](C)(C(=O)N[C@@H](CC(C)C)C(=O)N[C@@H](CC(C)C)C(=O)N[C@@H](CO)C(=O)NCCOCC(=O)N[C@@H](CC(C)C)C(=O)N[C@@H](C)C(=O)N2C[C@H](O)C[C@H]2C(=O)N[C@@H](Cc2ccc(O)cc2)C(=O)N[C@@H](CCC(C)C)C(=O)N2CCC[C@H]2C(N)=O)NC(=O)[C@H](Cc2c[nH]c3ccccc23)NC(=O)[C@H](Cc2ccc(O)cc2)NC(=O)[C@H](CCC(=O)O)NC1=O)[C@@H](C)O [SPMI-HIF1-1] (Ac-TSF[S5]EYW[S5]LLS[AEA]LA[Hyp]Y[hLeu]P-NH2; staple 4-8) | 3% | 3% | 82.1 µM | > 100 µM | – | – | – | – | – | – | –
6 | CC(=O)N[C@H](C(=O)N[C@@H](CO)C(=O)N[C@@H](Cc1ccccc1)C(=O)N[C@@]1(C)CCCC=CCCC[C@@](C)(C(=O)N[C@@H](CC(C)C)C(=O)N[C@@H](CC(C)C)C(=O)N[C@@H](CO)C(=O)NCCOCCOCCC(=O)N[C@@H](CC(C)C)C(=O)N[C@@H](C)C(=O)N2C[C@H](O)C[C@H]2C(=O)N[C@@H](Cc2ccc(O)cc2)C(=O)N[C@@H](CCC(C)C)C(=O)N2CCC[C@H]2C(N)=O)NC(=O)[C@H](Cc2c[nH]c3ccccc23)NC(=O)[C@H](Cc2ccc(O)cc2)NC(=O)[C@H](CCC(=O)O)NC1=O)[C@@H](C)O [SPMI-HIF1-2] (Ac-TSF[S5]EYW[S5]LLS[PEG2]LA[Hyp]Y[hLeu]P-NH2; staple 4-8) | 2% | 2% | 85.1 µM | > 100 µM | – | – | – | – | – | – | –
7 | CC(=O)N[C@H](C(=O)N[C@@H](CO)C(=O)N[C@@H](Cc1ccccc1)C(=O)N[C@@]1(C)CCCC=CCCC[C@@](C)(C(=O)N[C@@H](CC(C)C)C(=O)N[C@@H](CC(C)C)C(=O)N[C@@H](CO)C(=O)NCCOCCOCCOCCC(=O)N[C@@H](CC(C)C)C(=O)N[C@@H](C)C(=O)N2C[C@H](O)C[C@H]2C(=O)N[C@@H](Cc2ccc(O)cc2)C(=O)N[C@@H](CCC(C)C)C(=O)N2CCC[C@H]2C(N)=O)NC(=O)[C@H](Cc2c[nH]c3ccccc23)NC(=O)[C@H](Cc2ccc(O)cc2)NC(=O)[C@H](CCC(=O)O)NC1=O)[C@@H](C)O [SPMI-HIF1-3] (Ac-TSF[S5]EYW[S5]LLS[PEG3]LA[Hyp]Y[hLeu]P-NH2; staple 4-8) | 27% | 27% | 57.7 µM | > 100 µM | – | – | – | – | – | – | –
8 | CC(=O)N[C@H](C(=O)N[C@@H](CO)C(=O)N[C@@H](Cc1ccccc1)C(=O)N[C@]1(C)CCCCCCC=CCCC[C@@](C)(C(=O)NCCOCCOCCC(=O)N[C@@H](CC(C)C)C(=O)N[C@@H](C)C(=O)N2C[C@H](O)C[C@H]2C(=O)N[C@@H](Cc2ccc(O)cc2)C(=O)N[C@@H](CCC(C)C)C(=O)N2CCC[C@H]2C(N)=O)NC(=O)[C@H](CC(C)C)NC(=O)[C@H](CC(C)C)NC(=O)[C@H](C)NC(=O)[C@H](Cc2c[nH]c3ccccc23)NC(=O)[C@H](Cc2ccc(O)cc2)NC(=O)[C@H](CCC(=O)O)NC1=O)[C@@H](C)O [SPMI-HIF2-2] (Ac-TSF[R8]EYWALL[S5][PEG2]LA[Hyp]Y[hLeu]P-NH2; staple 4-11) | 37% | 37% | 10.8 µM | > 100 µM | – | – | – | – | – | – | –
9 | CC(=O)N[C@H](C(=O)N[C@@H](CO)C(=O)N[C@@H](Cc1ccccc1)C(=O)N[C@]1(C)CCCCCCC=CCCC[C@@](C)(C(=O)NCCOCCOCCOCCC(=O)N[C@@H](CC(C)C)C(=O)N[C@@H](C)C(=O)N2C[C@H](O)C[C@H]2C(=O)N[C@@H](Cc2ccc(O)cc2)C(=O)N[C@@H](CCC(C)C)C(=O)N2CCC[C@H]2C(N)=O)NC(=O)[C@H](CC(C)C)NC(=O)[C@H](CC(C)C)NC(=O)[C@H](C)NC(=O)[C@H](Cc2c[nH]c3ccccc23)NC(=O)[C@H](Cc2ccc(O)cc2)NC(=O)[C@H](CCC(=O)O)NC1=O)[C@@H](C)O [SPMI-HIF2-3] (Ac-TSF[R8]EYWALL[S5][PEG3]LA[Hyp]Y[hLeu]P-NH2; staple 4-11) | 24% | 24% | 15.2 µM | > 100 µM | – | – | – | – | – | – | –
